Experimental data: PubChem BioAssay (NCI)
“And” between values parts separate entries of the source, which are not always exact repeats. Equal entries are not always repeated.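 Exposure lasted 48 hours, with cells grown in 96-well plates and compounds tested at five concentrations. At the GI50, growth is halved. The concentration for full growth arrest is given as TGI.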

How the values were obtained:
Assay in all cases: DTP human tumour cell line panel, 48 h
K-562 leukemia = tested on: K-562 leukemia
HL-60(TB) leukemia = tested on: HL-60(TB) leukemia
OVCAR-8 ovarian = tested on: OVCAR-8 ovarian
HCC-2998 colon = tested on: HCC-2998 colon
SK-MEL-2 melanoma = tested on: SK-MEL-2 melanoma
SNB-75 CNS = tested on: SNB-75 CNS
SN12C renal = tested on: SN12C renal
RPMI-8226 leukemia = tested on: RPMI-8226 leukemia
IGROV1 ovarian = tested on: IGROV1 ovarian
MOLT-4 leukemia = tested on: MOLT-4 leukemia

| SMILES | TGI (K-562 leukemia) | GI50 (HL-60(TB) leukemia) [µM] | TGI (HL-60(TB) leukemia) | GI50 (OVCAR-8 ovarian) [µM] | TGI (OVCAR-8 ovarian) | GI50 (HCC-2998 colon) [µM] | TGI (HCC-2998 colon) | GI50 (SK-MEL-2 melanoma) [µM] | TGI (SK-MEL-2 melanoma) [µM] | GI50 (SNB-75 CNS) [µM] | TGI (SNB-75 CNS) [µM] | GI50 (SN12C renal) [µM] | TGI (SN12C renal) | GI50 (RPMI-8226 leukemia) [µM] | TGI (RPMI-8226 leukemia) | TGI (IGROV1 ovarian) [µM] | GI50 (MOLT-4 leukemia) [µM] | TGI (MOLT-4 leukemia) | GI50 (K-562 leukemia) [µM] | GI50 (IGROV1 ovarian) [µM] |
| --- | --- | --- | --- | --- | --- | --- | --- | --- | --- | --- | --- | --- | --- | --- | --- | --- | --- | --- | --- | --- |
| O=[N+]([O-])c1ccc([I+]c2ccccc2)cc1 | > 53.2 µM | 3.15 | 27.4 µM and 9.73 µM | 2.78 | 12.2 µM and 10.3 µM | 3.22 | 16.4 µM and 11.3 µM | 2.25 | 7.47 | 1.66 | 3.28 | 1.4 | 3.26 µM and 2.89 µM | 4.64 | 47.2 µM and 54.2 µM | 35.3 | 3.17 | > 26.2 µM and 75.3 µM |  |  |
| CCN1C(=O)N(CC)C2C1NN=c1s/c(=C\c3ccc([N+](=O)[O-])cc3)c(=O)n12 (configuration not stated) | > 100 µM | 0.31 | 1.12 µM | 0.885 | > 91.1 µM | 1.61 | > 100 µM | 1.16 | > 100 | 0.181 | 0.783 | 0.677 | > 64.4 µM | 0.449 | > 38.9 µM | > 32.9 | 0.577 | > 100 µM | 0.35 | 0.977 |
| Cc1ccc2c(c1)/C(=N\N=C/c1cn(C(C)C)c3ccccc13)C(=O)N2 | > 100 µM | 1.95 | 6.17 µM | 4.7 | > 100 µM | 2.42 | 14.9 µM | 2.3 | 23 | 3.2 | > 100 | 4.47 | > 100 µM | 0.396 | 7.31 µM | > 100 | 0.252 | 0.753 µM | 1.96 | 1.37 |
| O=C(O)Cc1ccccc1 | > 1000 µM and 1010 µM | > 1000 | > 1000 µM | > 1000 | > 2000 µM | > 1000 | > 2000 µM | > 1000 | > 2000 | > 1000 | > 2000 | > 1000 | > 2000 µM |  | 1420 µM | > 2000 | > 1000 | > 1000 µM and 1260 µM | > 1000 | > 1000 |
| COC(=O)[C@@]12C3=NO[C@]1(C(=O)OC)C(O[Si](C)(C)C(C)(C)C)C1OC(C)(C)OC1[C@@H]2[C@@H](OCc1ccccc1)CC3 (some centres not stated) | > 100 µM |  | 13.9 µM |  | > 100 µM |  | > 100 µM |  | > 100 |  | > 100 |  | > 100 µM |  | > 100 µM | > 100 |  | > 100 µM |  |  |
| CC1(C)CCC(CN2CCN(c3ccc(C(=O)NS(=O)(=O)c4ccc(NCC5CCOCC5)c([N+](=O)[O-])c4)c(Oc4cnc5[nH]ccc5c4)c3)CC2)=C(c2ccc(Cl)cc2)C1 | 26.9 µM | 0.25 | 2.33 µM | 3.22 | 16.5 µM | 2.1 | 3.92 µM | 1.63 | 3.36 | 3.71 | 15.1 | 2.82 | 11.8 µM | 1.78 | 5.54 µM | 9.57 | 2.15 | 5.27 µM | 3.5 | 2.98 |
| CCN(CC)c1ccc(/C=C/C2=[N+](C)c3ccccc3C2(C)C)cc1 | > 100 µM | 0.0906 | > 100 µM | 0.442 | > 100 µM | 0.547 | 18.6 µM | 0.487 | > 35.9 | 0.34 | 17.3 | 0.342 | 13.8 µM | 0.0557 | > 61.6 µM | > 85.6 | 0.557 | > 100 µM | 3.44 | 0.709 |
| CCOC(=O)/C(=C/c1c(-c2ccccc2)[nH]c2ccccc12)C(=O)c1ccc(Cl)cc1 | > 100 µM | 1.99 | 7.59 µM | 5.75 | > 100 µM | 3.94 | > 100 µM | 3.99 | 47.5 | 4.87 | > 100 | 3.35 | > 100 µM | 2.92 | > 100 µM | > 100 | 2.57 | 8.21 µM | 3.42 | 19.9 |
| CC/C(=C(/CC)c1ccc(OP(=O)([O-])[O-])cc1)c1ccc(OP(=O)([O-])[O-])cc1.N.N.N.N.[Pt+4].[Pt+4] | > 100 µM | 0.518 | 16.4 µM | 4.71 | > 100 µM | 11.6 | 24 µM | 13.1 | > 100 | 1.24 | 7.4 | 3.93 | 45.7 µM | 4.19 | > 100 µM | 53.6 | 1.09 | 19.5 µM | 4.63 | 5.36 |
| COC(=O)C1(C)CCc2c(ccc3ccccc23)C1=O (configuration not stated) | > 100 µM |  | > 100 µM |  | > 100 µM |  | > 100 µM |  | 64.8 |  | > 100 |  | > 100 µM |  | 60.6 µM | 95.7 |  | > 100 µM |  |  |
| Nc1cc2c3c(cccc3c1)C(=O)N(CCN1CCN(CCN3C(=O)c4cccc5cc(N)cc(c45)C3=O)CC1)C2=O | > 100 µM |  | > 100 µM |  | > 100 µM |  | > 100 µM |  | > 100 |  | > 100 |  | > 100 µM |  | > 100 µM | > 100 |  | > 100 µM |  |  |
| COC12c3ccccc3-c3ccccc3C1[C@@H](C(=O)O)[C@H]2C(=O)O (some centres not stated) | > 10 µM |  | > 10 µM |  | > 10 µM |  | > 10 µM |  | > 10 |  | > 10 |  | > 10 µM |  | > 10 µM | > 10 |  | > 10 µM |  |  |
| Nc1nccc(C#Cc2cncnc2Nc2ccc(OCc3cccc(F)c3)c(Cl)c2)n1 | > 25 µM | 5.7 | 14.5 µM | 4.94 | 24.8 µM | 4.1 | 7.55 µM | 4.98 | 9.34 | 5.75 | > 14.3 | 3.22 | 9.98 µM | 5.62 | 16.9 µM | 20 | 5.69 | 21.5 µM | 4.24 | 5.1 |
